{"source": "paper PMC9138994", "about": "(Biomolecules, 2022)", "test_system": "C57BL/6 mice", "assay": "Tail suspension test (TST)", "assay_type": "in vivo", "details": "acute i.p. pretreatment, ST-2300 10 or 15 mg/kg, PIM 5–15 mg/kg, FLX 10 mg/kg, vs saline controls, C57BL/6 mice, 6 min", "method": "Inbred adult male C57BL/6 mice (aged 10–12 weeks and weighing 20–25 g) were obtained from the animal facility in the College of Medicine and Health Sciences, United Arab Emirates University. The animals were maintained in a separate air-conditioned room with controlled temperature and humidity (24 ± 2 °C and 55 ± 15%, respectively), with a 12 h light/dark cycle, and ad libitum to food and water. All the experiments were performed between 9.00 am and 3.00 pm. The procedures were approved by the Institutional Animal Ethics Committee of College of Medicine and Health Sciences/United Arab Emirates University (Approval No. ERA-2019-6010). To reduce the suffering of the animals, a minimum number of animals were used in this study, whereas the objectives were not compromised.\nThese experiments provide the first behavioral assessment of the ST-2300 in anxiety-like and depression-like behaviors in mice. All doses are expressed in terms of the free base of all test compounds. The drugs used in the current study were dissolved in saline and injected i.p. at a volume of 1 mL/kg. All experimental procedures were conducted in a blinded fashion in which the experimenter was uninformed about the specific treatment groups to which an animal group belonged. Saline, ST-2300 (5, 10, and 15 mg/kg), PIM (5, 10, and 15 mg/kg), FLX (10 mg/kg), RAM (10 mg/kg), and DZP (1 mg/kg) were injected i.p. 30–45 min before the beginning of the behavioral experiments.\nThis experimental protocol was followed as previously described, however with slight modifications. Each mouse was suspended on the edge of a rod 50 cm above a table top using adhesive Scotch tape placed approximately 1 cm from the tip of the tail. Tail climbing was prevented by passing the mouse’s tail through a small plastic cylinder prior to suspension, as described by Can et al.. The duration of immobility was manually scored for a 6 min observation period. Mice were considered immobile only when they hung down passively and were completely motionless. The parameter recorded was the number of seconds spent immobile."}
{"smiles": "CNCCC(Oc1ccc(C(F)(F)F)cc1)c1ccccc1", "note": "(stereo not shown) [FLX, fluoxetine, reference compound]", "values": [{"measurement": "immobility time in TST", "result": "significant differences between FLX and saline controls"}]}
